For series [1], the target named is T1, perforin produced by an intact NK cell line (KHYG-1) (Homo sapiens, UniProt P14222).
T1 construct: the perforin is delivered by a functional NK cell; endogenous in cells; host or cells: KHYG-1 NK cells (K562 target cells)
T1 sequence (P14222 22-555): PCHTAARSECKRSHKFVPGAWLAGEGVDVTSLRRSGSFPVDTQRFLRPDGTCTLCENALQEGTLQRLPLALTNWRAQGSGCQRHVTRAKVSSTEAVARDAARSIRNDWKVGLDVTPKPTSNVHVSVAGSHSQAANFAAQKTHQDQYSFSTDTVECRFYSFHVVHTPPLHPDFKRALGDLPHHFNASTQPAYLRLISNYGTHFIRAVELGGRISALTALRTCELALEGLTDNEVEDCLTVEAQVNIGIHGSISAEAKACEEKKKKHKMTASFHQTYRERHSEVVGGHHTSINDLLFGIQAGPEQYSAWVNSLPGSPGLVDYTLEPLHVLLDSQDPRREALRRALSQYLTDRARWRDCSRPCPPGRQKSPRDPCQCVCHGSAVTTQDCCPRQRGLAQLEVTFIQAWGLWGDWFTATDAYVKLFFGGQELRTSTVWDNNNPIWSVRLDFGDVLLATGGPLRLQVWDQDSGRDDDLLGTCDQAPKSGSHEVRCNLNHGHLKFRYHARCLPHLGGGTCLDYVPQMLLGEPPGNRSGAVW
The series can be described thus: KHYG-1 cytotoxicity assay: perforin-induced lysis of K562 target cells co-incubated with KHYG-1 NK cells. As to conditions: for inhibition at 5 µM: KHYG-1. Type of series: cell-based. As to the method: KHYG-1 cells were washed and resuspended in RPMI + 0.1% BSA at 4 × 10^5 cells/mL, and an amount of 50 μL of KHYG-1 cells was dispensed to each well of a 96-well V-bottom plate. RPMI (50 μL) + 0.1% BSA or 10% (final concentration) of serum was added to each well. Then test compounds were added to KHYG-1 cells at various concentrations up to 20 μM and incubated at room temperature for 20 min. 1 × 10^6 K562 target cells were labeled with 75 μCi ^51Cr in 200 μL of RPMI for 90 min at 37 °C. Cells were washed as described above and resuspended in 5 mL of RPMI + 0.1% BSA. […] The percentage of specific cytotoxicity was calculated using the following formula: [drawing 4] and expressed as the mean of triplicate assays ± standard error of the mean.

A short description of series [2]: Maximum tolerated dose (MTD) in C57BL/6 mice. To be noted: C57BL/6, mouse, in vivo, ip. As to the method:
The MTD was determined by single dose or b.i.d. × 3 intraperitoneal administration through a classical dose escalation design in C57BL/6 mice and defined as a dose level that was tolerated by mice (n = 2–3 mice/group) with a body weight loss of <10% and no death or detectable sickness. […] All animal experiments were approved by the Animal Ethics Committee of the University of Auckland.

Series [3] has as its target T2, perforin delivered by primary human natural killer cells to HeLa cells (Homo sapiens, UniProt P14222).
T2 construct: degranulation and the release of perforin into the synaptic cleft; endogenous in cells; host or cells: primary human NK cells from peripheral blood of four donors (HeLa target cells)
T2 sequence (P14222 22-555): T1 sequence (P14222 22-555)
The experiment in a line: Time-lapse microscopy of the cytotoxic immunological synapse (primary NK cells and HeLa targets). It is filed as cell-based. To be noted: 20 μM, primary human NK cells, HeLa targets. The protocol:
Time-lapse microscopy and image analysis were performed as described previously.[42] In brief, primary human natural killer cells were isolated from the peripheral blood of four unrelated donors using negative selection, as described in the above reference. […] All experiments were performed at 37 °C/5% CO2.

For series [4], the system named is KHYG-1 NK cells. The experiment in a line: Toxicity to KHYG-1 NK cells (Trypan blue exclusion). It is filed as cell-based, human. To be noted: 5 μM, viability after 24 h.
Where [5] appears, read: intraperitoneal, twice daily over 3 days, read-out: MTD, multiple dosing.
The mark [6] stands for this setting: single intraperitoneal dose, mice, read-out: MTD, single dose.

Like-named read-outs stand apart in the source and are kept apart here.

From PMC3865801 (Journal of Medicinal Chemistry, 2013) come the findings set out here.

One may read the inhibition as how much of the control response was suppressed. A word on the MTD: it is the largest dose that counted as tolerated.

In the case of `CC1c2cc(-c3ccc(/C=C4/NC(=S)NC4=O)s3)ccc2C(=O)N1C` (stereo not shown) [compound 135, (E,Z)-2,3-Dimethyl-5-(5-((5-oxo-2-thioxoimidazolidin-4-ylidene)methyl)thiophen-2-yl)isoindolin-1-one], the inhibition at 20 µM worked out at 67 ± 6.1% in series [1] (20 μM, 10% mouse serum, K562 targets, ± SEM, read-out: KHYG-1 inhibition (% at 20 μM), 10% serum) and 90 ± 4% in series [1] (20 μM, no serum, K562 targets, vs untreated control, ± SEM, read-out: KHYG-1 inhibition (% at 20 μM), no serum). The values for the MTD at 96 h in series [2] (setting [5]) and in series [2] (setting [6]) were 60 mg/kg and 80 mg/kg, respectively.
As to `O=C1NC(=S)N/C1=C/c1ccc(-c2ccc3c(c2)CCNC3=O)s1` [compound 167], the “synapses in which formation of the perforin pore was blocked” value in series [3] came out at 40%. Besides, the “killer cells that delivered functional perforin to the target” value in series [3] (DMSO control: every cell) was 60%. Besides, in series [4], the KHYG-1 viability entry is given as “lack of NK toxicity”. The inhibition at 5 µM is 34 ± 6.4% in series [1] (10% mouse serum, read-out: KHYG-1 inhibition, 10% serum) and 51 ± 4.2% in series [1] (no serum, read-out: KHYG-1 inhibition, no serum). The inhibition at 20 µM is 81 ± 5.3% in series [1] (read-out: KHYG-1 inhibition (% at 20 μM), 10% serum) and 83 ± 4.6% in series [1] (read-out: KHYG-1 inhibition (% at 20 μM), no serum). Moreover, the MTD at 96 h is 40 mg/kg in series [2] (setting [5]) and 60 mg/kg in series [2] (setting [6]).
